Reference: EP0252524A2, “Aryl- and aralkylamide- derivatives of Omega- (substituted-phenyloxy)-alkanoic acids as inhibitors of acyl-coa: cholesterol acyltransferase and pharmaceuticals containing them” (WARNER-LAMBERT COMPANY, priority 1986, dated 1988)

What follows are molecules tested against acyl-CoA:cholesterol acyltransferase (ACAT) (assay: in vitro ACAT inhibition test: radio-labeled cholesteryl oleate formed from radio-labeled oleic acid in intestinal microsomes). Conditions: concentration required to inhibit cholesteryl oleate formation to 50% of control; tissue preparation containing rabbit intestinal microsomes.
Assay type: biochemical
Protocol: The ability of representative compounds of the present invention to inhibit ACAT was measured using an in vitro test more fully described in Field, F. J. and Salone, R. G., Biochemica et Biophysica 712: 557-570 (1982). The test assesses the ability of a test compound to inhibit the acylation of cholesterol by oleic acid by measuring the amount of radio-labeled cholesterol oleate formed from radio-labeled oleic acid in a tissue preparation containing rabbit intestinal microsomes.
The data appear in the Table where they are expressed as IC₅₀ values; i.e. the concentration of test compound required to inhibit cholesteryl oleate formation to 50% of control.

IC50 [nM]	SMILES
4800	Cc1ccc(OCCCC(C)(C)C(=O)NC(C)c2ccccn2)cc1 (centres unmarked) [Example 1, 2,2-dimethyl-5-(4-methylphenoxy)-N-[1-(2-pyridinyl)ethyl]pentanamide]
4300	CCCCc1ccc(OCCCC(C)(C)C(=O)Nc2ccccc2OC)cc1 [Example 2, 5-(4-butylphenoxy)-N-(2-methoxyphenyl)-2,2-dimethylpentanamide]
2400	CCCCc1ccc(OCCCC(C)(C)C(=O)Nc2ccc(C)cc2OC)cc1 [Example 3, 5-(4-butylphenoxy)-N-(2-methoxy-4-methylphenyl)-2,2-dimethylpentanamide]
460	CCCCc1ccc(OCCCC(C)(C)C(=O)Nc2c(OC)cc(OC)cc2OC)cc1 [Example 4, 5-(4-butylphenoxy)-2,2-dimethyl-N-(2,4,6-trimethoxyphenyl)-pentanamide]
800	CCCCc1ccc(OCCCC(C)(C)C(=O)NC(C)c2ccccn2)cc1 (centres unmarked) [Example 5, 5-(4-butylphenoxy)-2,2-dimethyl-N-[1-(2-pyridinyl)ethyl]pentanamide]
9000	CCCCc1ccc(OCCCC(C)(C)C(=O)Nc2c(OC)ncnc2OC)cc1 [Example 7, 5-(4-butylphenoxy)-N-(4,6-dimethoxy-5-pyrimidinyl)-2,2-dimethylpentanamide]
1400	Cc1ccc(NC(=O)C(C)(C)CCCOc2ccc(C(C)(C)C)cc2)c(C)c1 [Example 8, 5-[4-(1,1-dimethylethyl)phenoxy]-N-(2,4-dimethylphenyl)-2,2-dimethylpentanamide]
1200	CC(C)(CCCOc1ccc(C(C)(C)C)cc1)C(=O)Nc1ccc(F)cc1F [Example 9, N-(2,4-difluorophenyl)-5-[4-(1,1-dimethylethyl)phenoxy]-2,2-dimethylpentanamide]
44	COc1cc(OC)c(NC(=O)C(C)(C)CCCOc2ccc(C(C)(C)C)cc2)c(OC)c1 [Example 10, 5-[4-(1,1-dimethylethyl)phenoxy]-2,2-dimethyl-N-(2,4,6-trimethoxyphenyl)pentanamide]
700	CC(NC(=O)C(C)(C)CCCOc1ccc(C(C)(C)C)cc1)c1ccccn1 (centres unmarked) [Example 12, 5-[4-(1,1-dimethylethyl)phenoxy]-2,2-dimethyl-N-[1-(2-pyridinyl)ethyl]pentanamide]
160	CCC(C)(C)c1ccc(OCCCC(C)(C)C(=O)NC(C)c2ccccn2)cc1 (centres unmarked) [Example 13, 5-[4-(1,1-dimethylpropyl)phenoxy]-2,2-dimethyl-N-[1-(2-pyridinyl)ethyl]pentanamide]
700	CCCCCCc1ccc(OCCCC(C)(C)C(=O)NC(C)c2ccccn2)cc1 (centres unmarked) [Example 15, 5-(4-hexylphenoxy)-2,2-dimethyl-N-[1-(2-pyridinyl)ethyl]pentanamide]
800	CCCCCCCCc1ccc(OCCCC(C)(C)C(=O)Nc2c(OC)cc(OC)cc2OC)cc1 [Example 16, 2,2-dimethyl-5-(4-octylphenoxy)-N-(2,4,6-trimethoxyphenyl)pentanamide]
450	CCCCCCCCc1ccc(OCCCC(C)(C)C(=O)NC(C)c2ccccn2)cc1 (centres unmarked) [Example 17, 2,2-dimethyl-5-(4-octylphenoxy)-N-[1-(2-pyridinyl)ethyl]pentanamide]
